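Method: 48-hour compound exposure of cells in 96-well plates, five concentrations, linear interpolation of endpoints. TGI marks complete inhibition of growth.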
What was measured:
Assay in all cases: inhibition of tumour cell growth, NCI panel, 48 h
HOP-92 NSCLC = test system: HOP-92 NSCLC
HT29 colon = test system: HT29 colon
COLO 205 colon = test system: COLO 205 colon
786-0 renal = test system: 786-0 renal
RXF 393 renal = test system: RXF 393 renal
SNB-19 CNS = test system: SNB-19 CNS
DU-145 prostate = test system: DU-145 prostate
MALME-3M melanoma = test system: MALME-3M melanoma
HCC-2998 colon = test system: HCC-2998 colon
A549 NSCLC = test system: A549 NSCLC
SK-MEL-2 melanoma = test system: SK-MEL-2 melanoma
CCRF-CEM leukemia = test system: CCRF-CEM leukemia
MDA-MB-435 = test system: MDA-MB-435
NCI-H460 lung = test system: NCI-H460 lung
SF-539 CNS = test system: SF-539 CNS
RPMI-8226 leukemia = test system: RPMI-8226 leukemia
HS 578T breast = test system: HS 578T breast
NCI/ADR-RES ovarian = test system: NCI/ADR-RES ovarian
NCI-H522 lung = test system: NCI-H522 lung
MOLT-4 leukemia = test system: MOLT-4 leukemia
M14 melanoma = test system: M14 melanoma
SK-MEL-5 melanoma = test system: SK-MEL-5 melanoma
SNB-75 CNS = test system: SNB-75 CNS
OVCAR-5 ovarian = test system: OVCAR-5 ovarian
IGROV1 ovarian = test system: IGROV1 ovarian
NCI-H226 lung = test system: NCI-H226 lung
SK-MEL-28 melanoma = test system: SK-MEL-28 melanoma
HCT-116 colon = test system: HCT-116 colon
HCT-15 colon = test system: HCT-15 colon
UACC-62 melanoma = test system: UACC-62 melanoma
SW-620 colon = test system: SW-620 colon
HOP-62 NSCLC = test system: HOP-62 NSCLC
SF-268 CNS = test system: SF-268 CNS
SF-295 CNS = test system: SF-295 CNS
K-562 leukemia = test system: K-562 leukemia
TK-10 renal = test system: TK-10 renal
SR leukemia = test system: SR leukemia
MDA-N = test system: MDA-N
U251 CNS = test system: U251 CNS
LOX IMVI melanoma = test system: LOX IMVI melanoma
KM12 colon = test system: KM12 colon
T-47D breast = test system: T-47D breast
EKVX NSCLC = test system: EKVX NSCLC
A498 renal = test system: A498 renal
NCI-H23 lung = test system: NCI-H23 lung
SK-OV-3 ovarian = test system: SK-OV-3 ovarian
PC-3 prostate = test system: PC-3 prostate
MDA-MB-231 breast = test system: MDA-MB-231 breast
HL-60(TB) leukemia = test system: HL-60(TB) leukemia
OVCAR-4 ovarian = test system: OVCAR-4 ovarian
UO-31 renal = test system: UO-31 renal
OVCAR-3 ovarian = test system: OVCAR-3 ovarian
CAKI-1 renal = test system: CAKI-1 renal
ACHN renal = test system: ACHN renal
SN12C renal = test system: SN12C renal
MCF7 breast = test system: MCF7 breast
OVCAR-8 ovarian = test system: OVCAR-8 ovarian
UACC-257 melanoma = test system: UACC-257 melanoma
BT-549 breast = test system: BT-549 breast

O=[N+]([O-])c1ccc(-c2nnc(C34CC5CC(CC(C5)C3)C4)o2)cc1
TGI (HOP-92 NSCLC): > 100 µM | TGI (HT29 colon): > 100 µM | TGI (COLO 205 colon): > 100 µM | TGI (786-0 renal): > 100 µM | TGI (RXF 393 renal): > 100 µM | TGI (SNB-19 CNS): > 100 µM | TGI (DU-145 prostate): > 100 µM | TGI (MALME-3M melanoma): > 100 µM | TGI (HCC-2998 colon): > 100 µM | TGI (A549 NSCLC): > 100 µM | TGI (SK-MEL-2 melanoma): > 100 µM | TGI (CCRF-CEM leukemia): > 100 µM | TGI (MDA-MB-435): > 100 µM | TGI (NCI-H460 lung): > 100 µM | TGI (SF-539 CNS): > 100 µM | TGI (RPMI-8226 leukemia): > 100 µM | TGI (HS 578T breast): > 100 µM | TGI (NCI/ADR-RES ovarian): > 100 µM | TGI (NCI-H522 lung): > 100 µM | TGI (MOLT-4 leukemia): > 100 µM | TGI (M14 melanoma): > 100 µM | TGI (SK-MEL-5 melanoma): > 100 µM | TGI (SNB-75 CNS): > 100 µM | TGI (OVCAR-5 ovarian): > 100 µM | TGI (IGROV1 ovarian): > 100 µM | TGI (NCI-H226 lung): > 100 µM | TGI (SK-MEL-28 melanoma): > 100 µM | TGI (HCT-116 colon): > 100 µM | TGI (HCT-15 colon): > 100 µM | TGI (UACC-62 melanoma): > 100 µM | TGI (SW-620 colon): > 100 µM | TGI (HOP-62 NSCLC): > 100 µM | TGI (SF-268 CNS): > 100 µM | TGI (SF-295 CNS): > 100 µM | TGI (K-562 leukemia): > 100 µM | TGI (TK-10 renal): > 100 µM | TGI (SR leukemia): > 100 µM | TGI (MDA-N): > 100 µM | TGI (U251 CNS): > 100 µM | TGI (LOX IMVI melanoma): > 100 µM | TGI (KM12 colon): > 100 µM | TGI (T-47D breast): > 100 µM | TGI (EKVX NSCLC): > 100 µM | TGI (A498 renal): > 100 µM | TGI (NCI-H23 lung): > 100 µM | TGI (SK-OV-3 ovarian): > 100 µM | TGI (PC-3 prostate): > 100 µM | TGI (MDA-MB-231 breast): > 100 µM | TGI (HL-60(TB) leukemia): > 100 µM | TGI (OVCAR-4 ovarian): > 100 µM | TGI (UO-31 renal): > 100 µM | TGI (OVCAR-3 ovarian): > 100 µM | TGI (CAKI-1 renal): > 100 µM | TGI (ACHN renal): > 100 µM | TGI (SN12C renal): > 100 µM

O=C(CCC(NC(=O)OCc1ccccc1)C(=O)OCc1ccccc1)Nc1ccc(OCc2ccccc2)cc1 (stereo not drawn)
TGI (HOP-92 NSCLC): > 31.6 µM | TGI (HT29 colon): > 31.6 µM | TGI (COLO 205 colon): > 31.6 µM | TGI (786-0 renal): 17.4 µM | TGI (MCF7 breast): 19.9 µM | TGI (RXF 393 renal): > 31.6 µM | TGI (SNB-19 CNS): > 31.6 µM | TGI (DU-145 prostate): > 31.6 µM | TGI (MALME-3M melanoma): > 31.6 µM | TGI (HCC-2998 colon): > 31.6 µM | TGI (A549 NSCLC): > 31.6 µM | TGI (SK-MEL-2 melanoma): > 10 µM | TGI (CCRF-CEM leukemia): > 31.6 µM | TGI (MDA-MB-435): > 31.6 µM | TGI (NCI-H460 lung): > 31.6 µM | TGI (SF-539 CNS): > 31.6 µM | TGI (RPMI-8226 leukemia): > 10 µM | TGI (HS 578T breast): > 31.6 µM | TGI (NCI/ADR-RES ovarian): > 31.6 µM | TGI (NCI-H522 lung): > 100 µM | TGI (MOLT-4 leukemia): > 31.6 µM | TGI (OVCAR-8 ovarian): 20.2 µM | TGI (M14 melanoma): > 100 µM | TGI (SK-MEL-5 melanoma): > 10 µM | TGI (SNB-75 CNS): > 31.6 µM | TGI (OVCAR-5 ovarian): > 100 µM | TGI (IGROV1 ovarian): > 31.6 µM | TGI (NCI-H226 lung): > 31.6 µM | TGI (SK-MEL-28 melanoma): > 31.6 µM | TGI (HCT-116 colon): 17.1 µM | TGI (HCT-15 colon): 26.3 µM | TGI (UACC-62 melanoma): > 31.6 µM | TGI (SW-620 colon): > 31.6 µM | TGI (UACC-257 melanoma): > 31.6 µM | TGI (HOP-62 NSCLC): > 100 µM | TGI (BT-549 breast): > 10 µM | TGI (SF-268 CNS): > 31.6 µM | TGI (SF-295 CNS): > 31.6 µM | TGI (K-562 leukemia): > 31.6 µM | TGI (TK-10 renal): > 31.6 µM | TGI (SR leukemia): > 31.6 µM | TGI (U251 CNS): 28 µM | TGI (LOX IMVI melanoma): > 31.6 µM | TGI (KM12 colon): > 31.6 µM | TGI (T-47D breast): > 31.6 µM | TGI (EKVX NSCLC): > 31.6 µM | TGI (A498 renal): > 10 µM | TGI (NCI-H23 lung): > 31.6 µM | TGI (SK-OV-3 ovarian): > 31.6 µM | TGI (PC-3 prostate): 28.4 µM | TGI (MDA-MB-231 breast): 25.6 µM | TGI (HL-60(TB) leukemia): > 31.6 µM | TGI (OVCAR-4 ovarian): > 31.6 µM | TGI (UO-31 renal): > 10 µM | TGI (OVCAR-3 ovarian): > 100 µM | TGI (CAKI-1 renal): > 31.6 µM | TGI (ACHN renal): > 31.6 µM | TGI (SN12C renal): > 31.6 µM
